Reference: US20170156324A1 (Dow AgroSciences LLC, priority 2015, published 2017)
Values joined by “and” are separate entries in the source; they are usually repeats but may differ in a detail not shown here. Equal values may be shown once.

Experiments:
Format in all cases: in vivo
[1] = system: Matricaria inodora (scentless mayweed, MATIN); test: Field trial, post-emergence % visual weed control, MATIN; details: 14DAA, 12 g ai/ha
Excerpt: (§1) Except for the trials utilizing the OD formulations, Actirob B was applied at 0.5 or 1.0 liters per hectare (L/ha), or Polyglycol 26-2 was applied at 0.5 to 1.0 L/ha in all respective single and tankmixture treatments being evaluated.
(§2) Trials were established as randomized complete blocks (RCBD) with three to four replicates. Individual treatments were 2-2.5 meters (m) wide and 6-20 m long. An untreated control was included in each trial. All trial sites had naturally occurring populations of weeds.
(§3) Herbicides were applied with backpack or bicycle sprayers using compressed air, nitrogen (N2) or carbon dioxide (CO2) as a propellant. All sprayers delivered a uniform spray pattern that provided thorough coverage of the foliage using a water volume of 150-300 L/ha. All herbicides were applied post-emergence in the spring to early-summer At the time of herbicide applications, winter wheat crops were at the six-leaf to three-tiller stage. Broadleaf and grass weeds were at a similar stage of growth at the time of herbicide application, typically from five leaf to 3 tiller depending on the weed species and time of year.
(§4) The treated plots and control plots were rated blind at various intervals after application. […] The control of the target weeds was visually assessed as percent control, compared to an untreated control plot. The assessments were based on a percent visual reduction in pest plant biomass and/or stand reduction of weed population.
(§5) The efficacy of all treatments was assessed at 13-22 days after application (DAA) for an early season rating, 23-39 DAA for a mid-season rating, and 41-84 DAA for a late-season rating. The data were statistically analyzed using various statistical methods, generally including a Tukey's HSD Factorial Analysis of Variance with a significance level of 5%.
(§6) Colby's equation was used to determine the herbicidal effects expected from the mixtures (Colby, S. R. Calculation of the synergistic and antagonistic response of herbicide combinations. Weeds 1967, 15, 20-22). A t-test (alpha=0.05) between Colby predictions and observed combinations was used to test for significant differences indicating synergy or antagonism using replicate data.
(§7) Expected=A+B+C−(AB+AC+BC)/100+(ABC)/10,000

[2] = system: Viola arvensis Murr. (field violet, VIOAR); test: Field trial, post-emergence % visual weed control, VIOAR; details: 12 g ai/ha
Excerpt: as §1, §2, §3, §4, §5, §6, §7

[3] = system: Lamium purpureum L. (purple deadnettle, LAMPU); test: Field trial, post-emergence % visual weed control, LAMPU
Excerpt: as §1, §2, §3, §4, §5, §6, §7

[4] = system: Matricaria recutita L. (wild chamomile, MATCH); test: Field trial, post-emergence % visual weed control, MATCH
Excerpt: as §1, §2, §3, §4, §5, §6, §7

[5] = system: Stellaria media (L.) Vill. (common chickweed, STEME); test: Field trial, post-emergence % visual weed control, STEME
Excerpt: as §1, §2, §3, §4, §5, §6, §7

[6] = system: Centaurea cyanus (cornflower, CENCY); test: Field trial, post-emergence % visual weed control, CENCY; details: 12 g ai/ha
Excerpt: as §1, §2, §3, §4, §5, §6, §7

[7] = system: Galium aparine L. (catchweed bedstraw, GALAP); test: Field trial, post-emergence % visual weed control, GALAP; details: 28DAA, 12 g ai/ha
Excerpt: as §1, §2, §3, §4, §5
(§8) Colby's equation was used to determine the herbicidal effects expected from the mixtures (Colby, S. R. Calculation of the synergistic and antagonistic response of herbicide combinations. Weeds 1967, 15, 20-22). […]

[8] = system: Solanum nigrum L. (black nightshade, SOLNI); test: Field trial, post-emergence % visual weed control, SOLNI; details: 18.75 g ai/ha
Excerpt: as §1, §2, §3, §4, §5, §6, §7

[9] = system: Consolida regalis S. F. Gray (branching larkspur, CNSRE); test: Field trial, post-emergence % visual weed control, CNSRE; details: 12 g ai/ha
Excerpt: as §1, §2, §3, §4, §5, §6, §7

[10] = system: Agropyron repens L. (quackgrass, AGRRE); test: Field trial, post-emergence % visual weed control, AGRRE; details: 14DAA, 12 g ai/ha
Excerpt: as §1, §2, §3, §4, §5, §8

[11] = system: Alopecurus myosuroides Huds. (blackgrass, ALOMY); test: Field trial, post-emergence % visual weed control, ALOMY; details: 15DAA, 12 g ai/ha
Excerpt: as §1, §2, §3, §4, §5, §8

[12] = system: Apera spica-venti (L.) Beauv. (windgrass, APESV); test: Field trial, post-emergence % visual weed control, APESV; details: 12 g ai/ha
Excerpt: as §1, §2, §3, §4, §5, §6, §7

[13] = system: Echinochloa crus-galli (L.) P. Beauv. (barnyardgrass, ECHCG); test: Field trial, post-emergence % visual weed control, ECHCG; details: 18.75 g ai/ha
Excerpt: as §1, §2, §3, §4, §5, §6, §7

[14] = system: Lolium L. sp. (ryegrass, LOLSS); test: Field trial, post-emergence % visual weed control, LOLSS; details: 14DAA, 18.75 g ai/ha
Excerpt: as §1, §2
(§9) Herbicides were applied with backpack or bicycle sprayers using compressed air, nitrogen (N2) or carbon dioxide (CO2) as a propellant. All sprayers delivered a uniform spray pattern that provided thorough coverage of the foliage using a water volume of 150-300 L/ha. […]
(§10) The treated plots and control plots were rated blind at various intervals after application. […] The control of the target weeds was visually assessed as percent control, compared to an untreated control plot. […]
as §5, with “5%. […]” for “5%.”

[15] = system: Lolium multiflorum Lam. (Italian ryegrass, LOLMU); test: Field trial, post-emergence % visual weed control, LOLMU; details: 22.5 g ai/ha
Excerpt: as §1, §2, §9, §10
as §5, with “5%. […]” for “5%.”

[16] = system: Lolium rigidum (rigid ryegrass, LOLRI); test: Field trial, post-emergence % visual weed control, LOLRI; details: 28DAA, 22.5 g ai/ha
Excerpt: as §1, §2, §9, §10
as §5, with “5%. […]” for “5%.”

[17] = system: Avena macrocarpa Moench (wild red oat, AVEST); test: Field trial, post-emergence % visual weed control, AVEST; details: 32DAA, 18.75 g ai/ha
Excerpt: as §1, §2, §9, §10
as §5, with “5%. […]” for “5%.”

[18] = system: Papaver rhoeas L. (common poppy, PAPRH); test: Field trial, post-emergence % visual weed control, PAPRH; details: 56DAA, 22.5 g ai/ha
Excerpt: as §1, §2, §9, §10
as §5, with “5%. […]” for “5%.”

Avena sp. (oats, AVESS) = test: Field trial, post-emergence % visual weed control, AVESS; details: 76DAA, 18.75 g ai/ha
Excerpt: as §1, §2, §9, §10
as §5, with “5%. […]” for “5%.”

COc1cc(OC)n2nc(NS(=O)(=O)c3c(C(F)(F)F)ccnc3OC)nc2n1 [Pyroxsulam, N-(5,7-dimethoxy[1,2,4]triazolo[1,5-a]pyrimidin-2-yl)-2-methoxy-4-(trifluoromethyl)-pyridine-3-sulfonamide]
Mean % Weed Control [1]: 20.0% | Mean % Weed Control ([2]; 14DAA): 61.3% | Mean % Weed Control ([2]; 56DAA): 93.8% | Mean % Weed Control ([3]; 15DAA, 9.6 g ai/ha): 16.3% | Mean % Weed Control ([3]; 15DAA, 12 g ai/ha): 10.0% | Mean % Weed Control ([3]; 32DAA, 9.6 g ai/ha): 0.0% | Mean % Weed Control ([4]; 15DAA, 9.6 g ai/ha): 12.8% | Mean % Weed Control ([4]; 61DAA, 9.6 g ai/ha): 16.3% and 23.7% | Mean % Weed Control ([4]; 61DAA, 12 g ai/ha): 20.0% and 26.3% | Mean % Weed Control ([4]; 78DAA, 9.6 g ai/ha): 17.0% | Mean % Weed Control ([4]; 78DAA, 12 g ai/ha): 18.8% | Mean % Weed Control ([5]; 15DAA, 9.6 g ai/ha): 0.0% | Mean % Weed Control ([5]; 15DAA, 12 g ai/ha): 0.0% | Mean % Weed Control ([5]; 61DAA, 9.6 g ai/ha): 5.0% and 11.1% | Mean % Weed Control ([5]; 61DAA, 12 g ai/ha): 3.8% and 9.7% | Mean % Weed Control ([5]; 78DAA, 9.6 g ai/ha): 16.3% | Mean % Weed Control ([5]; 78DAA, 12 g ai/ha): 13.8% | Mean % Weed Control ([6]; 28DAA): 38.8% | Mean % Weed Control ([6]; 77DAA): 15.0% | Mean % Weed Control ([6]; 84DAA): 12.5% | Mean % Weed Control [7]: 89.5% | Mean % Weed Control ([8]; 29DAA): 50.0% | Mean % Weed Control ([8]; 56DAA): 30.0% | Mean % Weed Control ([9]; 31DAA): 66.8% | Mean % Weed Control ([9]; 53DAA): 70.0% | Mean % Weed Control ([9]; 84DAA): 70% | Mean % Weed Control [10]: 37.5% | Mean % Weed Control [11]: 27.5% | Mean % Weed Control ([12]; 14DAA): 72.5% | Mean % Weed Control ([12]; 28DAA): 88.8% | Mean % Weed Control ([12]; 56DAA): 94.5% | Mean % Weed Control ([13]; 14DAA): 85.0% | Mean % Weed Control ([13]; 29DAA): 75.0% | Mean % Weed Control ([13]; 56DAA): 60.0% | Mean % Weed Control [14]: 90.0% | Mean % Weed Control ([15]; 28DAA): 72.5% | Mean % Weed Control ([15]; 55DAA): 72.5% | Mean % Weed Control [16]: 72.5% | Mean % Weed Control [17]: 97.8% | Mean % Weed Control [18]: 1.9% | Mean % Weed Control (Avena sp. (oats, AVESS)): 62.0%
